Reference: patent US11091497B2, “Pyrano[3,4-b]pyrazine kappa opioid receptor ligands for treating addiction, pruritus, pain, and inflammation” (The Rockefeller University, priority 2017, dated 2021)
Like-named read-outs stand apart in the source and are kept apart here.

Experiments:
[1] = molecular target: T1, kappa opioid receptor (PathHunter U2OS hOPRK1 membranes) (Homo sapiens, UniProt P41145); assay: Tritiated U69,593 binding for KOP-R membranes
T1 construct: host or cells: U2OS (PathHunter U2OS hOPRK1 β-arrestin cell line)
T1 sequence (P41145 whole entry): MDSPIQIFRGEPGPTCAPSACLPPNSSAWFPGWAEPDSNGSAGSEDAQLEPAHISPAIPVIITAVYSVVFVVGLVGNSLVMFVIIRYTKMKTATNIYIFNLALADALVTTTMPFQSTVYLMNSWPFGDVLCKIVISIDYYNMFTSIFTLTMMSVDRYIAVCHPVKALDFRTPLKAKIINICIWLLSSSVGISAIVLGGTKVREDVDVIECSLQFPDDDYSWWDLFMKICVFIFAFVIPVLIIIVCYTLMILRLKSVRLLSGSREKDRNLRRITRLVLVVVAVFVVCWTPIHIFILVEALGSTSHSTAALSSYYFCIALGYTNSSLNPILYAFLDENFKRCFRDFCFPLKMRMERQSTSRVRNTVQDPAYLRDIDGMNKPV
Method: Tritiated U69,593 binding for KOP-R membranes; tritiated DAMGO binding for MOP-R membranes; and tritiated DPDPE binding for DOP-R membranes:
(§1) Membranes from cells stably expressing kappa, mu or delta opioid receptor constructs (PathHunter U2OS hOPRK1, CHO-K1 rOPRM1 and CHO-K1 OPRD1 β-arrestin cell line, DiscoverX, Fremont, Calif., USA) were used. Cells were scraped from tissue culture plates, homogenized with a tissue tearor homogenizer in membrane buffer (10 mM Tris, 100 mM NaCl, and 1 mM EDTA; pH 7.4), and centrifuged at 20,000 g for 30 minutes at 4° C. and frozen at −80° C. until use. Prior to use, the pellets were resuspended in binding buffer (50 mm Tris, 100 mm NaCl, pH 7.4), homogenized with a dounce homogenizer and […] incubated with 1.0 nM of the appropriate tritiated ligand ([^3H]U69,593, [^3H]DAMGO or [^3H]DPDPE for kappa, mu or delta binding, respectively) and the appropriate concentration of compound for 60 minutes at 30° C. Membranes with bound tritiated ligand were collected on Whatman GF/B filter paper (Brandel, Gaithersburg, Md., USA) utilizing a Brandel harvester. Bound tritiated ligand was quantified using a TriCarb-2900TR scintillation counter (Packard, Downers Grove, Ill., USA) following addition of 4 ml ReadySafe scintillation fluid (Beckman Coulter, Indianapolis, Ind., USA). Compiled data for each compound was normalized to the maximal binding in the absence of compound, with non-specific binding subtracted. Curve fitting was done in Microcal Origin 17.0 software using logistic sigmoidal fit, to determine IC50. GTPgammaS Membranes from U2OS cells stably expressing human kappa opioid receptors were used. Cells were scraped from tissue culture plates, homogenized with a tissue tearor homogenizer in membrane buffer (10 mM Tris, 100 mM NaCl, and 1 mM EDTA; pH 7.4), and centrifuged at 20,000 g for 30 minutes at 4° C. and frozen at −80° C. until use. Prior to use, the pellets were resuspended in assay buffer (50 mm Tris, 100 mm NaCl, 5 mM MgCl2, and 1 mM EDTA; pH 7.4) and homogenized with a dounce homogenizer and 50 μg incubated with 0.1 nM [35 S]GTPγS, 10 nM GDP, and the appropriate concentration of agonist for 20 minutes at 30° C. To test inhibition, all samples were incubated with 100 nM U69,593 as well as the appropriate concentration of compound. Membranes with bound [35 S]GTPγS were collected on Whatman GF/B filter paper (Brandel, Gaithersburg, Md., USA) utilizing a Brandel harvester. Bound [35 S]GTPγS was quantified using a TriCarb-2900TR scintillation counter (Packard, Downers Grove, Ill., USA) following addition of 4 mL ReadySafe scintillation fluid (Beckman Coulter, Indianapolis, Ind., USA). […] NA indicates not applicable. For each compound, curve fitting was done in Microcal Origin 17.0 software using logistic sigmoidal fit, to determine EC50 and maximal percent stimulation, which in turn was normalized to the maximal percent stimulation of the test full agonist compound U69,593 to determine % efficacy. β2-Arrestin Experiments were conducted using the PathHunter Detection Kit obtained from DiscoverX. Cells stably expressing kappa, mu or delta opioid receptor constructs (PathHunter U2OS hOPRK1, CHO-K1 rOPRM1 and CHO-K1 OPRD1 β-arrestin cell line, DiscoverX, Fremont, Calif., USA) were plated in 96- or 384-well plates. Cells were stimulated with the compounds for 90 minutes at 37° C. To test inhibition, all samples were incubated with 100 nM U69,593 as well as the appropriate concentration of compound. Cells were then incubated for 60 minutes in the presence of galoctosidase substrate, yielding chemiluminescent product. Chemiluminescence was measured using a Synergy Neo microplate reader (BioTek, Winooski, Vt., USA). Antagonism assays were done in the same manner, in the presence of 300 nM U69,593, 1 μM DAMGO or 1 μM DPDPE for KOP-R, MOP-R or DOP-R assays, respectively. […] NA indicates not applicable. […]

[2] = molecular target: T2, human kappa opioid receptors (Homo sapiens, UniProt P41145); assay: [35S]GTPγS stimulation, membranes from U2OS cells; format: biochemical; conditions: for Emax: read-out: GTPγS stimulation % efficacy
T2 construct: expressed in transfected cells; host or cells: U2OS
T2 sequence (P41145 whole entry): as above
Method: Membranes from cells stably expressing kappa, mu or delta opioid receptor constructs (PathHunter U2OS hOPRK1, CHO-K1 rOPRM1 and CHO-K1 OPRD1 β-arrestin cell line, DiscoverX, Fremont, Calif., USA) were used. Cells were scraped from tissue culture plates, homogenized with a tissue tearor homogenizer in membrane buffer (10 mM Tris, 100 mM NaCl, and 1 mM EDTA; pH 7.4), and centrifuged at 20,000 g for 30 minutes at 4° C. and frozen at −80° C. until use. Prior to use, the pellets were resuspended in binding buffer (50 mm Tris, 100 mm NaCl, pH 7.4), homogenized with a dounce homogenizer and […] incubated with 1.0 nM of the appropriate tritiated ligand ([^3H]U69,593, [^3H]DAMGO or [^3H]DPDPE for kappa, mu or delta binding, respectively) and the appropriate concentration of compound for 60 minutes at 30° C. Membranes with bound tritiated ligand were collected on Whatman GF/B filter paper (Brandel, Gaithersburg, Md., USA) utilizing a Brandel harvester. Bound tritiated ligand was quantified using a TriCarb-2900TR scintillation counter (Packard, Downers Grove, Ill., USA) following addition of 4 ml ReadySafe scintillation fluid (Beckman Coulter, Indianapolis, Ind., USA). Compiled data for each compound was normalized to the maximal binding in the absence of compound, with non-specific binding subtracted. Curve fitting was done in Microcal Origin 17.0 software using logistic sigmoidal fit, to determine IC50. GTPgammaS Membranes from U2OS cells stably expressing human kappa opioid receptors were used. Cells were scraped from tissue culture plates, homogenized with a tissue tearor homogenizer in membrane buffer (10 mM Tris, 100 mM NaCl, and 1 mM EDTA; pH 7.4), and centrifuged at 20,000 g for 30 minutes at 4° C. and frozen at −80° C. until use. Prior to use, the pellets were resuspended in assay buffer (50 mm Tris, 100 mm NaCl, 5 mM MgCl2, and 1 mM EDTA; pH 7.4) and homogenized with a dounce homogenizer and 50 μg incubated with 0.1 nM [35 S]GTPγS, 10 nM GDP, and the appropriate concentration of agonist for 20 minutes at 30° C. To test inhibition, all samples were incubated with 100 nM U69,593 as well as the appropriate concentration of compound. Membranes with bound [35 S]GTPγS were collected on Whatman GF/B filter paper (Brandel, Gaithersburg, Md., USA) utilizing a Brandel harvester. Bound [35 S]GTPγS was quantified using a TriCarb-2900TR scintillation counter (Packard, Downers Grove, Ill., USA) following addition of 4 mL ReadySafe scintillation fluid (Beckman Coulter, Indianapolis, Ind., USA). […] For each compound, curve fitting was done in Microcal Origin 17.0 software using logistic sigmoidal fit, to determine EC50 and maximal percent stimulation, which in turn was normalized to the maximal percent stimulation of the test full agonist compound U69,593 to determine % efficacy. β2-Arrestin Experiments were conducted using the PathHunter Detection Kit obtained from DiscoverX. Cells stably expressing kappa, mu or delta opioid receptor constructs (PathHunter U2OS hOPRK1, CHO-K1 rOPRM1 and CHO-K1 OPRD1 β-arrestin cell line, DiscoverX, Fremont, Calif., USA) were plated in 96- or 384-well plates. Cells were stimulated with the compounds for 90 minutes at 37° C. To test inhibition, all samples were incubated with 100 nM U69,593 as well as the appropriate concentration of compound. Cells were then incubated for 60 minutes in the presence of galoctosidase substrate, yielding chemiluminescent product. Chemiluminescence was measured using a Synergy Neo microplate reader (BioTek, Winooski, Vt., USA). Antagonism assays were done in the same manner, in the presence of 300 nM U69,593, 1 μM DAMGO or 1 μM DPDPE for KOP-R, MOP-R or DOP-R assays, respectively.

[3] = molecular target: T3, kappa opioid receptor (PathHunter U2OS hOPRK1 β-arrestin cell line) (Homo sapiens, UniProt P41145); assay: β-arrestin coupling (PathHunter Detection Kit); format: cell-based; conditions: for Emax at 10 µM: U2OS
T3 construct: host or cells: U2OS (PathHunter U2OS hOPRK1 β-arrestin cell line)
T3 sequence (P41145 whole entry): as above
Method: as §1

[4] = read-out: β-arrestin coupling % efficacy at 10 μM
[5] = 1.0 nM [3H]U69,593, 60 minutes at 30° C., read-out: Binding IC50

SMILES: O=C(Cc1ccc(Cl)c(Cl)c1)N1CCN(CC2CCC2)[C@@H]2COC[C@H](N3CCCC3)[C@H]21 (racemic) [Example 5A55]
- IC50 [1]: 57 nM
- EC50 [2]: 21 nM
- Emax [2]: 67%
- Emax at 10 µM [3, 4]: 40%

SMILES: Cc1ccc(CC(=O)N2CCN[C@@H]3COC[C@H](N4CCCC4)[C@H]32)cc1Cl (racemic) [Example 5A57]
- IC50 [1]: 42 nM
- EC50 [2]: 62 nM
- Emax [2]: 98%
- Emax at 10 µM [3, 4]: 20%

SMILES: Cc1cc(CC(=O)N2CCN[C@@H]3COC[C@H](N4CCCC4)[C@H]32)ccc1Cl (racemic) [Example 5A58]
- IC50 [1, 5]: 116 nM
- EC50 [2]: 261 nM
- Emax [2]: 161%
- Emax at 10 µM [3, 4]: 20%

SMILES: CCN(CC)[C@H]1COC[C@H]2NCCN(C(=O)Cc3ccc(Cl)c(Cl)c3)[C@@H]21 (racemic) [Example 5A64]
- IC50 [1, 5]: 1920 nM
- EC50 [2]: 2120 nM
- Emax [2]: 68%
- β-arrestin coupling % efficacy ([3]; maximal, normalized to U69,593, No stim = no stimulation at highest dose tested, 10,000 nM): No stim

SMILES: O=C(Cc1ccc(Cl)c(F)c1)N1CCN[C@@H]2COC[C@H](N3CCCC3)[C@H]21 (racemic) [Example 5A65]
- IC50 [1]: 68 nM
- EC50 ([2]; 20 minutes at 30° C., read-out: GTPγS stimulation EC50): 136 nM
- Emax [2]: 121%
- Emax at 10 µM [3, 4]: 20%

SMILES: O=C(Cc1ccc(Cl)cc1)N1CCN[C@@H]2COC[C@H](N3CCCC3)[C@H]21 (racemic) [Example 5A66]
- IC50 [1, 5]: 456 nM
- EC50 [2]: 566 nM
- Emax [2]: 140%
- Emax at 10 µM [3, 4]: 20%

SMILES: COC(=O)N1CCN(C(=O)Cc2ccc(Cl)c(Cl)c2)[C@H]2[C@H]1COC[C@@H]2N1CCCC1 (racemic) [Example 5A67]
- IC50 [1]: 41 nM
- EC50 [2]: 12 nM
- Emax [2]: 85%
- EC50 [3]: 5200 nM
- Emax at 10 µM ([3]; read-out: β-arrestin coupling % efficacy): 85%

SMILES: O=C(Cc1ccc(Cl)c(Cl)c1)N1CCN(CC2CC2)[C@@H]2COC[C@H](N3CCCC3)[C@H]21 (racemic) [Example 5A70]
- IC50 [1]: 71 nM
- EC50 [2]: 19 nM
- Emax [2]: 90%
- Emax at 10 µM [3, 4]: 50%

SMILES: CCCN1CCN(C(=O)Cc2ccc(Cl)c(Cl)c2)[C@H]2[C@H]1COC[C@@H]2N1CCCC1 (racemic) [Example 5A72]
- IC50 [1]: 26 nM
- EC50 [2]: 12 nM
- Emax [2]: 111%
- Emax at 10 µM [3, 4]: 50%

SMILES: O=C(Cc1cccc(Cl)c1)N1CCN[C@@H]2COC[C@H](N3CCCC3)[C@H]21 (single isomer, unassigned) [Example 5A24A]
- IC50 [1, 5]: 463 nM
- EC50 [2]: 384 nM
- Emax [2]: 115%
- Emax at 10 µM [3, 4]: 0%

SMILES: O=C(Cc1cccc(Cl)c1)N1CCN[C@H]2COC[C@@H](N3CCCC3)[C@@H]21 (single isomer, unassigned) [Example 5A24B]
- IC50 [1, 5]: 1130 nM
- EC50 [2]: 1370 nM
- Emax [2]: 102%
- Emax at 10 µM [3, 4]: 0%

SMILES: CS(=O)(=O)N1CCN(C(=O)Cc2ccc(Cl)c(Cl)c2)[C@H]2[C@H]1COC[C@@H]2N1CCCC1 (single isomer, unassigned) [Example 5A44A]
- IC50 [1]: 5.4 nM
- EC50 [2]: 3.4 nM
- Emax [2]: 119%
- Emax at 10 µM [3, 4]: 80%

SMILES: CS(=O)(=O)N1CCN(C(=O)Cc2ccc(Cl)c(Cl)c2)[C@H]2[C@H](N3CCCC3)COC[C@@H]21 (single isomer, unassigned) [Example 5A44B]
- IC50 [1]: 18 nM
- EC50 [2]: 4.6 nM
- Emax [2]: 105%
- Emax at 10 µM [3, 4]: 70%

SMILES: O=C(Cc1ccc(Cl)c(Cl)c1)N1CCN(S(=O)(=O)C2CC2)[C@@H]2COC[C@H](N3CCCC3)[C@H]21 (single isomer, unassigned) [Example 5A52A]
- IC50 [1]: 3.6 nM
- EC50 [2]: 1.7 nM
- Emax [2]: 119%
- Emax at 10 µM [3, 4]: 60%

SMILES: O=C(Cc1ccc(Cl)c(Cl)c1)N1CCN(S(=O)(=O)C2CC2)[C@H]2COC[C@@H](N3CCCC3)[C@@H]21 (single isomer, unassigned) [Example 5A52B]
- IC50 [1]: 27 nM
- EC50 [2]: 18 nM
- Emax [2]: 96%
- Emax at 10 µM [3, 4]: 25%

SMILES: O=C(Cc1ccc(Cl)c(Cl)c1)N1CCN(Cc2ccccc2)[C@@H]2COC[C@H](N3CCCC3)[C@H]21 (single isomer, unassigned) [Example 5A53A]
- IC50 [1]: 108 nM
- EC50 [2]: 18 nM
- Emax [2]: 80%
- Emax at 10 µM [3, 4]: 80%
